Measured values from ChEMBL document CHEMBL1152085, “Novel 3-deoxy-3-descladinosyl-6-O-methyl erythromycin a analogues. Synthesis and in vitro activity” (1997).
In brackets after ≈: the same amount, converted by molar mass.

Legend:
Assay type in all cases: functional
[1] = tested on: Streptococcus pyogenes; assay: Tested in vitro for minimum inhibitory concentration to produce antibacterial activity against Streptococcus pyogenes PIU 2548
[2] = tested on: Escherichia coli; assay: Tested in vitro for minimum inhibitory concentration to produce antibacterial activity against Escherichia coli JUHL
[3] = tested on: Staphylococcus aureus; assay: Tested in vitro for minimum inhibitory concentration to produce antibacterial activity against Staphylococcus aureus ATCC 6538P
[4] = tested on: Streptococcus equinus; assay: Tested in vitro for minimum inhibitory concentration to produce antibacterial activity against Streptococcus bovis A-5169
[5] = tested on: Staphylococcus aureus; assay: Tested in vitro for minimum inhibitory concentration to produce antibacterial activity against Staphylococcus aureus NCTC-10649M in presence of erythromycin A
[6] = tested on: Enterococcus faecium; assay: Tested in vitro for minimum inhibitory concentration to produce antibacterial activity against Enterococcus faecium ATCC 8043 in presence of erythromycin A
[7] = tested on: Staphylococcus aureus; assay: Tested in vitro for minimum inhibitory concentration to produce antibacterial activity against Staphylococcus aureus A5177
[8] = tested on: Escherichia coli; assay: Tested in vitro for minimum inhibitory concentration to produce antibacterial activity against Escherichia coli SS
[9] = tested on: Streptococcus pyogenes; assay: Tested in vitro for minimum inhibitory concentration to produce antibacterial activity against Streptococcus pyogenes 930 in presence of erythromycin A
[10] = tested on: Staphylococcus aureus; assay: Tested in vitro for minimum inhibitory concentration to produce antibacterial activity against Staphylococcus aureus A5177 in presence of erythromycin A
[11] = tested on: Staphylococcus epidermidis; assay: Tested in vitro for minimum inhibitory concentration to produce antibacterial activity against Staphylococcus epidermidis 3519
[12] = tested on: Enterococcus faecium; assay: Tested in vitro for minimum inhibitory concentration to produce antibacterial activity against Enterococcus faecium ATCC 8043
[13] = tested on: Staphylococcus aureus; assay: Tested in vitro for minimum inhibitory concentration to produce antibacterial activity against Staphylococcus aureus A-5278
[14] = tested on: Streptococcus pyogenes; assay: Tested in vitro for minimum inhibitory concentration to produce antibacterial activity against Streptococcus pyogenes PIU 2548 in presence of erythromycin A
[15] = tested on: Staphylococcus aureus; assay: Tested in vitro for minimum inhibitory concentration to produce antibacterial activity against Staphylococcus aureus ATCC 6538P in presence of erythromycin A
[16] = tested on: Escherichia coli; assay: Tested in vitro for minimum inhibitory concentration to produce antibacterial activity against Escherichia coli JUHL in presence of erythromycin A
[17] = tested on: Streptococcus pyogenes; assay: Tested in vitro for minimum inhibitory concentration to produce antibacterial activity against Streptococcus pyogenes EES61 in presence of erythromycin A
[18] = tested on: Streptococcus pyogenes; assay: Tested in vitro for minimum inhibitory concentration to produce antibacterial activity against Streptococcus pyogenes 930
[19] = tested on: Staphylococcus aureus; assay: Tested in vitro for minimum inhibitory concentration to produce antibacterial activity against Staphylococcus aureus CMX 642A in presence of erythromycin A
[20] = tested on: Staphylococcus aureus; assay: Tested in vitro for minimum inhibitory concentration to produce antibacterial activity against Staphylococcus aureus 1775 in presence of erythromycin A
[21] = tested on: Staphylococcus aureus; assay: Tested in vitro for minimum inhibitory concentration to produce antibacterial activity against Staphylococcus aureus CMX 553 in presence of erythromycin A
[22] = tested on: Streptococcus pyogenes; assay: Tested in vitro for minimum inhibitory concentration to produce antibacterial activity against Streptococcus pyogenes EES61
[23] = tested on: Staphylococcus aureus; assay: Tested in vitro for minimum inhibitory concentration to produce antibacterial activity against Staphylococcus aureus CMX 642A
[24] = tested on: Staphylococcus aureus; assay: Tested in vitro for minimum inhibitory concentration to produce antibacterial activity against Staphylococcus aureus A-5278 in presence of erythromycin A
[25] = tested on: Staphylococcus aureus; assay: Tested in vitro for minimum inhibitory concentration to produce antibacterial activity against Staphylococcus aureus NCTC-10649M
[26] = tested on: Streptococcus agalactiae; assay: Tested in vitro for minimum inhibitory concentration to produce antibacterial activity against Streptococcus agalactiae CMX 508 in presence of erythromycin A
[27] = tested on: Streptococcus agalactiae; assay: Tested in vitro for minimum inhibitory concentration to produce antibacterial activity against Streptococcus agalactiae CMX 508
[28] = tested on: Streptococcus equinus; assay: Tested in vitro for minimum inhibitory concentration to produce antibacterial activity against Streptococcus bovis A-5169 in presence of erythromycin A
[29] = tested on: Staphylococcus epidermidis; assay: Tested in vitro for minimum inhibitory concentration to produce antibacterial activity against Staphylococcus epidermidis 3519 in presence of erythromycin A
[30] = tested on: Escherichia coli; assay: Tested in vitro for minimum inhibitory concentration to produce antibacterial activity against Escherichia coli SS in presence of erythromycin A
[31] = tested on: Staphylococcus aureus; assay: Tested in vitro for minimum inhibitory concentration to produce antibacterial activity against Staphylococcus aureus 1775
[32] = tested on: Staphylococcus aureus; assay: Tested in vitro for minimum inhibitory concentration to produce antibacterial activity against Staphylococcus aureus CMX 553

CC[C@H]1OC(=O)[C@H](C)[C@@H](OC(=S)SC)[C@H](C)[C@@H](O[C@@H]2O[C@H](C)C[C@H](N(C)C)[C@H]2O)[C@](C)(OC)C[C@@H](C)C(=O)[C@H](C)[C@@H](O)[C@]1(C)O
MIC [1]: 1.56 µg/mL (≈ 2.29 µM)
MIC [2]: > 100 µg/mL
MIC [3]: 25 µg/mL (≈ 36.8 µM)
MIC [4]: 0.39 µg/mL (≈ 0.574 µM)
MIC [5]: 0.2 µg/mL
MIC [6]: 0.05 µg/mL
MIC [7]: 25 µg/mL (≈ 36.8 µM)
MIC [8]: 0.39 µg/mL (≈ 0.574 µM)
MIC [9]: > 100 µg/mL
MIC [10]: 3.1 µg/mL
MIC [11]: 25 µg/mL (≈ 36.8 µM)
MIC [12]: 6.2 µg/mL (≈ 9.12 µM)
MIC [13]: > 100 µg/mL
MIC [14]: 6.2 µg/mL
MIC [15]: 0.2 µg/mL
MIC [16]: 50 µg/mL
MIC [17]: 0.02 µg/mL
MIC [18]: 100 µg/mL (≈ 147 µM)
MIC [19]: 0.2 µg/mL
MIC [20]: > 100 µg/mL
MIC [21]: 0.2 µg/mL
MIC [22]: 0.78 µg/mL (≈ 1.15 µM)
MIC [23]: 25 µg/mL (≈ 36.8 µM)
MIC [24]: > 100 µg/mL
MIC [25]: 12.5 µg/mL (≈ 18.4 µM)
MIC [26]: 0.02 µg/mL
MIC [27]: 0.78 µg/mL (≈ 1.15 µM)
MIC [28]: 0.02 µg/mL
MIC [29]: 0.2 µg/mL
MIC [30]: 0.2 µg/mL
MIC [31]: > 100 µg/mL
MIC [32]: 25 µg/mL (≈ 36.8 µM)

CCO/N=C1\[C@H](C)C[C@@](C)(OC)[C@H](O[C@@H]2O[C@H](C)C[C@H](N(C)C)[C@H]2O)[C@@H](C)C[C@@H](C)C(=O)O[C@H](CC)[C@@](C)(O)[C@H](O)[C@H]1C
MIC [1]: 25 µg/mL (≈ 40.5 µM)
MIC [2]: > 100 µg/mL
MIC [3]: 25 µg/mL (≈ 40.5 µM)
MIC [4]: 3.1 µg/mL (≈ 5.03 µM)
MIC [5]: 0.39 µg/mL
MIC [6]: 0.05 µg/mL
MIC [7]: 25 µg/mL (≈ 40.5 µM)
MIC [8]: 3.1 µg/mL (≈ 5.03 µM)
MIC [9]: > 100 µg/mL
MIC [10]: 3.1 µg/mL
MIC [11]: 25 µg/mL (≈ 40.5 µM)
MIC [12]: 25 µg/mL (≈ 40.5 µM)
MIC [13]: > 100 µg/mL
MIC [14]: 3.1 µg/mL
MIC [15]: 0.39 µg/mL
MIC [16]: 25 µg/mL
MIC [17]: 0.02 µg/mL
MIC [18]: > 100 µg/mL
MIC [19]: 0.39 µg/mL
MIC [20]: > 100 µg/mL
MIC [21]: 0.39 µg/mL
MIC [22]: 3.1 µg/mL (≈ 5.03 µM)
MIC [23]: 50 µg/mL (≈ 81.1 µM)
MIC [24]: > 100 µg/mL
MIC [25]: 12.5 µg/mL (≈ 20.3 µM)
MIC [26]: 0.1 µg/mL
MIC [27]: 3.1 µg/mL (≈ 5.03 µM)
MIC [28]: 0.01 µg/mL
MIC [29]: 0.39 µg/mL
MIC [30]: 0.2 µg/mL
MIC [31]: > 100 µg/mL
MIC [32]: 50 µg/mL (≈ 81.1 µM)
